Measurements reported in the supplement of paper PMC11061612.

Experiments:
Assay in all cases: Bliss excess, mean over the matrix (fraction); higher = more synergy
[1] = test system: BV-173 (Chronic Myelogenous Leukemia)
How it was run: (§1)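 Cell lines grown in DMEM/F12 or RPMI with 10% FBS were plated in 1536-well plates and held 24 hours at 37°C, 5% CO2 before 72 hours of exposure to two-drug dose matrices, with DMSO typically at 0.2%. CellTiter-Glo 2.0 luminescence gave viability, which was converted to inhibition. Vehicle wells were set to 0 and blank wells to 1. Combination Emax is the second-highest inhibition in the matrix, and Bliss excess is the observed combination effect minus the expected EA + EB − EA·EB, where EA and EB are the single-agent effects.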

[2] = test system: EW-18 (Ewing's Sarcoma)
How it was run: as §1

[3] = test system: EW-3 (Ewing's Sarcoma)
How it was run: as §1

[4] = test system: GI-1 (Glioblastoma)
How it was run: as §1

[5] = test system: HC-1 (Other Blood Carcinomas)
How it was run: as §1

[6] = test system: HSC-2 (Oral Cavity Carcinoma)
How it was run: as §1

[7] = test system: JHH-7 (Hepatocellular Carcinoma)
How it was run: as §1

[8] = test system: KP-2 (Pancreatic Carcinoma)
How it was run: as §1

[9] = test system: KYSE-150 (Esophageal Squamous Cell Carcinoma)
How it was run: as §1

[10] = test system: MFE-319 (Endometrial Carcinoma)
How it was run: as §1

[11] = test system: NCI-H1573 (Lung Adenocarcinoma)
How it was run: as §1

[12] = test system: NCI-H2347 (Lung Adenocarcinoma)
How it was run: as §1

[13] = test system: NCI-H513 (Other Solid Carcinomas)
How it was run: as §1

[14] = test system: NCI-N87 (Gastric Carcinoma)
How it was run: as §1

[15] = test system: NH-12 (Neuroblastoma)
How it was run: as §1

[16] = test system: OCUM-1 (Gastric Carcinoma)
How it was run: as §1

[17] = test system: PF-382 (T-Lymphoblastic Leukemia)
How it was run: as §1

[18] = test system: RPMI-7951 (Melanoma)
How it was run: as §1

[19] = test system: SCC-3 (B-Cell Non-Hodgkin's Lymphoma)
How it was run: as §1

[20] = test system: TGBC11TKB (Gastric Carcinoma)
How it was run: as §1

| SMILES | Bliss excess [1] | Bliss excess [2] | Bliss excess [3] | Bliss excess [4] | Bliss excess [5] | Bliss excess [6] | Bliss excess [7] | Bliss excess [8] | Bliss excess [9] | Bliss excess [10] | Bliss excess [11] | Bliss excess [12] | Bliss excess [13] | Bliss excess [14] | Bliss excess [15] | Bliss excess [16] | Bliss excess [17] | Bliss excess [18] | Bliss excess [19] | Bliss excess [20] |
| --- | --- | --- | --- | --- | --- | --- | --- | --- | --- | --- | --- | --- | --- | --- | --- | --- | --- | --- | --- | --- |
| COc1nnc2ccc(N3CCC(c4ccc(OCCN5CCN(C)C(=O)[C@H]5C)cc4)CC3)nn12 [AZD5153] + Cn1cnc2c(F)c(Nc3ccc(Br)cc3Cl)c(C(=O)NOCCO)cc21 [Selumetinib] (first compound max 1 µM, 7x7, partner max 10 µM) | -0.0503 | -0.0364 | -0.0625 | 0.0286 | -0.105 | 0.045 | -0.0274 | -0.0001 | 0.0195 | -0.0265 | 0.0491 | -0.0361 | -0.051 | -0.0399 | -0.0476 | -0.0347 | 0.0686 | 0.02 | -0.053 | 0.0671 |
| CC(=O)Nc1cccc(-n2c(=O)n(C3CC3)c(=O)c3c(Nc4ccc(I)cc4F)n(C)c(=O)c(C)c32)c1 [Trametinib] + Cc1nc(-c2cn3c(n2)-c2ccc(-c4cnn(C(C)(C)C(N)=O)c4)cc2OCC3)n(C(C)C)n1 [Taselisib] (first compound max 1 µM, 7x7, partner max 10 µM) | 0.0965 | 0.0163 | 0.046 | 0.0885 | 0.12 | 0.137 | 0.0427 | 0.192 | 0.123 | 0.0681 | 0.088 | 0.135 | 0.0563 | 0.067 | 0.011 | 0.06 | 0.234 | 0.0161 | 0.206 | 0.329 |
| Cn1cnc2c(F)c(Nc3ccc(Br)cc3Cl)c(C(=O)NOCCO)cc21 [Selumetinib] + CCN(CCO)CCCOc1ccc2c(Nc3cc(CC(=O)Nc4cccc(F)c4)[nH]n3)ncnc2c1 [AZD2811] (first compound max 10 µM, 7x7, partner max 1 µM) | -0.0225 | -0.0241 | -0.0112 | -0.104 | 0.0547 | -0.0278 | -0.0518 | 0.0449 | 0.0295 | -0.0736 | -0.0318 | 0.0258 | -0.0583 | -0.0173 | -0.0485 | 0.0153 | 0.111 | 0.0191 | 0.11 | 0.0127 |
| COc1cc2c(cc1OCCCCCOc1cc3c(cc1OC)C(=O)N1C=C(C)C[C@H]1C=N3)N=C[C@@H]1CC(C)=CN1C2=O [SG3199] + O=C(c1cc(Cc2n[nH]c(=O)c3ccccc23)ccc1F)N1CCN(C(=O)C2CC2)CC1 [Olaparib] (first compound max 0.001 µM, 7x7, partner max 10 µM) | 0.0535 | -0.0629 | -0.0613 | -0.0178 | -0.0164 | -0.0751 | -0.0368 | -0.0193 | -0.0131 | -0.041 | -0.0212 | -0.0661 | -0.0325 | -0.0477 | 0.0343 | -0.0653 | 0.0069 | 0.0032 | 0.0586 | -0.0038 |
| Cc1cc2ncnn2cc1Nc1ncc2c(n1)n(C1CCOCC1)c(=O)n2C [AZD7648] + CCN(CCO)CCCOc1ccc2c(Nc3cc(CC(=O)Nc4cccc(F)c4)[nH]n3)ncnc2c1 [AZD2811] (first compound max 10 µM, 7x7, partner max 1 µM) | -0.025 | -0.0154 | -0.0156 | 0.043 | 0.0045 | 0.0999 | -0.0244 | -0.0206 | 0.003 | 0.0419 | 0.0382 | 0.0131 | -0.021 | 0.0081 | -0.001 | -0.0093 | 0.0137 | 0.0312 | 0.0548 | 0.0666 |
| NC1(C(=O)N[C@@H](CCO)c2ccc(Cl)cc2)CCN(c2ncnc3[nH]ccc23)CC1 [Capivasertib] + C[C@@H]1COCCN1C2=NC(=NC(=C2)C3(CC3)[S@](=N)(=O)C)C4=C5C=CNC5=NC=C4 [AZD6738] (first compound max 10 µM, 7x7, partner max 10 µM) | -0.0271 | -0.0504 | -0.0457 | -0.0606 | -0.0166 | -0.0096 | -0.0404 | -0.0279 | -0.0545 | -0.122 | -0.0522 | -0.0218 | -0.0601 | -0.0567 | -0.0643 | -0.0088 | -0.0059 | -0.0632 | -0.0037 | -0.09 |
| COc1cccc(OCCCN)c1-c1cc(Nc2cnc(C#N)cn2)n[nH]1 [Prexasertib] + CCc1c2c(nc3ccc(O)cc13)-c1cc3c(c(=O)n1C2)COC(=O)[C@]3(O)CC [SN-38] (first compound max 1 µM, 7x7, partner max 0.3 µM) | -0.0594 | -0.0728 | -0.0732 | 0.0188 | -0.0005 | -0.0507 | 0.116 | 0.0983 | 0.135 | 0.0161 | 0.0357 | 0.0217 | -0.0068 | -0.0787 | -0.078 | -0.101 | -0.0583 | -0.0265 | 0.0056 | 0.0252 |
